According to US12551576B2, “Chemiluminescent probes” (The General Hospital Corporation, priority 2020, dated 2026):
“And” between values parts separate entries of the source, which are not always exact repeats. Equal values may be shown once. “Also recorded” adds a separate entry of the source. Read-outs that look alike come from different tables or passages of the source.

Experiments:
[1] = biological target: T1, Aβ40 aggregates (Homo sapiens, UniProt P05067); assay: Binding affinity of ADLumin-1 with Aβs (fluorescence titration); settings: ADLumin-1 250 nM, Aβ40 aggregates 0 to 8 μM, fluorescence at 515 nm
Target sequence in this assay (P05067 672-711 limits assumed): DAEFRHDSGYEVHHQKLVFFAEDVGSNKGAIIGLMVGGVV

[2] = biological target: T1, Aβ40 aggregates; assay: In vitro chemiluminescence study with Aβ aggregates in PBS; type: binding
Target sequence in this assay (P05067 672-711 limits assumed): as above

[3] = ROS sensitivity of ADLumin-1; type: physicochemical; settings: H2O2, ClO4−, TBHP, KO2; compared to O2 bubbling
Protocol: Oxygen and ROS sensitivity of ADLumin-1: A 100.0 μL DMSO solution of ADLumin-1 (200.0 μM) was added to a well in a 96-well plate. One group was bubbled with oxygen for 5 seconds at different time points, and the control group was sealed without bubbling. Once the bubbling was over, the plate was subjected to chemiluminescence intensity recording with the IVIS system with the open filter setting (500 nm-840 nm). For ROS tests, A PBS solution (240 μL) was incubated in an Eppendorf tube. To each of above tubes, different ROS (H2O2 30 μL, […] 30 μL, TBHP 30 μL and KO2 30 μL) was added, respectively. Then, a solution of ADLumin-1 in DMSO (30 μL, 250.0 μM) was added. Finally, 100.0 μL of the resulting solution was transferred into a well of 96-well plate, and triplicated samples were prepared. Chemiluminescence images were obtained with an IVIS system under the open filter (500 nm-840 nm).

[4] = biological target: T2, Aβ plaques (Homo sapiens, UniProt P05067); assay: In vitro histological study (brain slice staining); settings: 5×FAD mouse brain slice incubated with ADLumin-1
Protocol: In vitro histological study: a fresh brain tissue from a 24-month old APP/PS1 mouse was fixed in 4% formaldehyde for 24 hours and transferred into 30% sucrose at 4° C. until the tissue sunk. Then the tissue was embedded in OCT with gradual cooling over dry ice. […] Then the slice was covered with FluoroShield mounting medium (Abcam) and sealed with nail polish.

[5] = biological target: T2, Aβ plaques; assay: Ex vivo histological study; type: in vivo, 5×FAD mouse; settings: mouse sacrificed after two-photon imaging
Protocol: The fresh brain tissue was fixed in 4% formaldehyde for 24 hours and transferred into 30% sucrose at 4° C. until the tissue sunk. Then the tissue was embedded in an OCT block, which was sectioned into 25-μm slice with a cryostat. Then the slice was covered with FluoroShield mounting medium (Abcam).

[6] = biological target: Aβs (Homo sapiens, UniProt P05067); assay: In vivo chemiluminescence imaging with ADLumin-1; parameters: species or system 5×FAD mice
Protocol: The IVIS Spectrum animal imaging system (PerkinElmer) was used for in vivo imaging. Images were acquired with open filter or specific emission filters. […] Chemiluminescent signals from the eyes were recorded at 0 and 45 min after i.v. injection of the probe. Sequence images were captured at 15 min after probe injection with the following parameters: sequence filter from 500 nm to 840 nm with an interval of 20 nm; Exposure time is 30 s, FOV=D. […] To evaluate the imaging results, an ROI was drawn around the brain or the eye region. Student t-test was used to calculate P values.

[7] = biological target: T1, Aβ40 aggregates; assay: In vivo mimic demonstration of DAS-CRET; settings: FIG. 8E, subcutaneous injection in nude mouse
Protocol: After solutions were prepared, one female 8-month old nude mouse was anesthetized, and the left hind limb was subcutaneously injected with the first solution and the right hind limbs was subcutaneously injected with the second solution. The mouse was then placed into the IVIS imaging chamber and images were captured from the dorsal side and from the ventral side with the open filter (500 nm-840 nm) and specific filters.
Target sequence in this assay (P05067 672-711): as the sequence (P05067 672-711 limits assumed) above

[8] = test system: PA-K; assay: Chemiluminescence detection of model aggregates (PA-K); type: binding; settings: ADLumin-1 2.5 μM, PA-K 0.5 mg/ml
[9] = test system: PA-E2; assay: Chemiluminescence detection of model aggregates (PA-E2 vs PA-E); type: binding
[10] = test system: prion; type: binding
[11] = biological target: amylin (Homo sapiens, UniProt P10997); type: binding
[12] = biological target: Aβ40 aggregates, monomers and oligomers in human serum (Homo sapiens, UniProt P05067); assay: Chemiluminescence of Aβ40 species incubated with non-diluted human serum
[13] = biological target: alpha-synuclein in human serum (Homo sapiens, UniProt P37840); assay: Chemiluminescence of synuclein incubated with human serum
[14] = biological target: Apolipoprotein A-I (APO) (Homo sapiens, UniProt P02647); assay: Aβ aggregates incubated with APO
[15] = biological target: Transthyretin (Homo sapiens, UniProt P02766); assay: Aβ aggregates incubated with transthyretin
[16] = test system: beta-sheet misfoldons in patient serum; assay: Chemiluminescence detection of beta-sheet misfoldons in disease serum; parameters: species or system human
Protocol: Chemiluminescence detection beta-sheet misfoldons in disease serum by ADLumin-1: serum of AD patient contains abundant beta-sheet misfoldons that can be detected by ADLumin-1. ADLumin-1 (2.5 μM) was added to 100 μl non-diluted serum of AD patients, and serum from health control (HC) was used as the control. […] This is remarkable, since this difference is phenomenally large and is very useful for blood quality evaluation.
Misfolded beta-sheets are associated with various diseases, including brain disorders (e.g., neurodegenerative disorders) and periphery diseases, particularly chronic diseases. The patient sera of chronic diseases also contains abundant beta-sheet misfoldons. In this regard, patient sera of multiple sclerosis, diabetes, rheumatoid arthritis and pulmonary fibrosis patients was used in this example.

[17] = test system: beta-sheet misfoldons in mixed HC and disease serum; parameters: species or system human
[18] = biological target: Aβ plaques and cerebral amyloid angiopathy (CAA) (Homo sapiens, UniProt P05067)
[19] = two-photon imaging, 5×FAD mouse, i.v. 4 mg/kg

Aβ40 aggregates, monomers and oligomers in human serum, sequence (P05067 672-711 limits assumed): as above
Aβ plaques and cerebral amyloid angiopathy (CAA), sequence (P05067 672-713 limits assumed): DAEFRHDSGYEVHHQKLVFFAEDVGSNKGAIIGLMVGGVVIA
Aβs, sequence (P05067 672-713 limits assumed): as above
T2 sequence (P05067 672-713 limits assumed): as above
amylin, sequence (P10997 34-70 limits assumed): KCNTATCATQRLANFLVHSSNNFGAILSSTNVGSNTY
Apolipoprotein A-I (APO), sequence (P02647 25-267): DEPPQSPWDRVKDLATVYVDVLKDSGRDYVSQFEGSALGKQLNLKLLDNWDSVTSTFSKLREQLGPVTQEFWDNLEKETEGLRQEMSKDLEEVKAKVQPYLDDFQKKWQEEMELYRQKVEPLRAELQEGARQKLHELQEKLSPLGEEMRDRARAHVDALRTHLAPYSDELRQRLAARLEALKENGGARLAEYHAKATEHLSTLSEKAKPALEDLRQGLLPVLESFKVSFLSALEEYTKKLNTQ

SMILES: Cc1nc2c[nH]c(/C=C/C=C/c3ccc(N(C)C)cc3)cn-2c1=O [ADLumin-1, 6-((1E,3E)-4-(4-(dimethylamino)phenyl)buta-1,3-dien-1-yl)-2-methylimidazo[1,2-a]pyrazin-3(7H)-one]
- Kd [1]: 2.1 µM
- chemiluminescence signal, wells with Aβs vs wells without Aβs ([2]; IVIS imaging system, open filter, 96-well plate): 104 fold
- chemiluminescence intensity increase upon incubation with Aβs ([2]; PBS buffer with 2% DMSO, at 540 nm): about 216 fold
- amplification of chemiluminescence intensity upon mixing with Aβs in vitro ([2]; in vitro, summary statement): 216 fold and > 200 fold
- chemiluminescence response towards ROS species [3]: no significant changes; also recorded: considerably low; also recorded: relatively small
- signal to noise ratio (SNR) of plaques [4]: 2.93
- brightness of plaques in brain slides [5]: considerably bright
- chemiluminescence signal 5×FAD vs age-matched wild-type mice ([6]; 5-month-old mice, summary statement): 1.80 fold
- brain chemiluminescence signal difference 5×FAD vs WT ([6]; 640 nm filter): 1.7 fold
- brain chemiluminescence signal difference 5×FAD vs WT ([6]; 15 minutes after i.v. injection, open filter): 1.7 fold
- brain chemiluminescence signal difference 5×FAD vs WT ([6]; 30 minutes after i.v. injection, open filter): 1.8 fold
- chemiluminescence signals from eyes 5×FAD vs WT ([6]; mouse, in vivo): 1.6 fold
- chemiluminescence signals from noses 5×FAD vs WT ([6]; mouse, in vivo): 1.7 fold
- SNR (ROI1/ROI2) [7]: > 2000 and 2189
- chemiluminescence signal increase vs ADLumin-1 only in PBS [8]: 2.49 fold
- chemiluminescence intensity PA-E2 group vs PA-E group [9]: 4.39 fold
- largest chemiluminescence difference with aggregates [10]: 2.22 fold
- signal decay T½ [10]: 11.36 min
- largest chemiluminescence difference with aggregates [11]: 4.20 fold
- chemiluminescence ratio of the Aβ group and the control group ([12]; Aβ40 aggregate 2.5 μM): about 3.43 fold
- chemiluminescence intensity Aβ group vs control group ([12]; Aβ monomers): 1.96 fold
- chemiluminescence intensity Aβ group vs control group ([12]; Aβ oligomers): 1.71 fold
- chemiluminescence difference vs control group [13]: 4.30 fold
- intensity Aβ/APO group vs control group [14]: higher intensity
- intensity Aβ/transthyretin group vs control group [15]: higher intensity
- chemiluminescence signal AD serum vs HC serum ([16]; ADLumin-1 2.5 μM, 100 μl non-diluted serum): > 50 fold and 52.2 fold
- chemiluminescence signal disease serum vs HC control ([16]; diabetes serum): 44.7 fold
- chemiluminescence signal disease serum vs HC control ([16]; multiple sclerosis serum): 34.9 fold
- chemiluminescence signal disease serum vs HC control ([16]; pulmonary fibrosis serum): 16.6 fold
- chemiluminescence signal disease serum vs HC control ([16]; rheumatoid arthritis serum): 29.3 fold
- total signal of mixed group vs sum of 90% HC serum and 10% AD serum [17]: 1.66 fold
- signal mixture of HC serum and disease serum vs HC serum ([17]; 10% diabetes serum): 3.34 fold
- signal mixture of HC serum and disease serum vs HC serum ([17]; 10% multiple sclerosis serum): 7.24 fold
- signal mixture of HC serum and disease serum vs HC serum ([17]; 10% pulmonary fibrosis serum): 4.60 fold
- signal mixture of HC serum and disease serum vs HC serum ([17]; 10% rheumatoid arthritis serum): 6.64 fold
- chemiluminescence signal mixed group vs 100% HC serum ([17]; 90% HC serum and 10% AD serum): 7.75 fold
- SNR of CAAs [18, 19]: ~26.0
- SNR of plaques [18, 19]: about 17.0
- time to peak intensity in CAA ([18]; two-photon time-course imaging): ≤ 1 min
- time to peak intensity in plaques ([18]; two-photon time-course imaging): 5 min
